Measurements taken from patent US9474790B2, “Stable, protracted GLP-1/glucagon receptor co-agonists for medical use” (Novo Nordisk A/S, priority 2013, dated 2016).
Numbered stars: 1 amine (or outer) side, 2 acyl side, 3 side chain; on linkers, the order of the positions; unused ones are H or OH. Square brackets hold non-standard residues; d marks the D form. Side chains are listed from the residue outwards. Peptide text beside a SMILES is read from it. * marks the point of attachment. C18 diacid = O=C(O)CCCCCCCCCCCCCCCCC(=O)*; γGlu = O=C(O)[C@H](CCC(=O)[*:2])N[*:1]; AEEA = NCCOCCOCC(=O)O; Aib = CC(C)(N)C(=O)O

Molecular target: T1, human GLP-1 receptor (Homo sapiens, UniProt P43220)
T1 construct: expressed in transfected cells; host or cells: BHK cells (parent BHKTS13), clone FCW467-12A/KZ10-1, with CRE luciferase
T1 sequence (P43220 24-463): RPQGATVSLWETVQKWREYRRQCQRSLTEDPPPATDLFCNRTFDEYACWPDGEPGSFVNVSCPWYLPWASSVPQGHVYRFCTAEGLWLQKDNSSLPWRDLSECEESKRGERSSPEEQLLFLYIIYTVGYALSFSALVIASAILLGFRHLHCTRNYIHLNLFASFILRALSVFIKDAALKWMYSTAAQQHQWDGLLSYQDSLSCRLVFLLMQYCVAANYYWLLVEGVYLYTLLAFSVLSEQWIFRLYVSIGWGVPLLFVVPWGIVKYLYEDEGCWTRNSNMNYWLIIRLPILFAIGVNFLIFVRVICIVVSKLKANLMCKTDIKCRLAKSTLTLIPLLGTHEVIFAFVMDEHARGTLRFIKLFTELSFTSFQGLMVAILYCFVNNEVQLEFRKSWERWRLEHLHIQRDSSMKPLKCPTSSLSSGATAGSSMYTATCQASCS
Experiment: GLP-1 receptor binding, 125I-GLP-1 displacement SPA on isolated membranes
Conditions: displacement of 125I-GLP-1 from membranes; read-out: IC50 GLP-1R
Experimental: The purpose of this assay was to test the in vitro receptor binding activity of the glucagon derivatives of the invention. The receptor binding is a measure of affinity of a compound for the human GLP-1 receptor.
The receptor binding of each compound to the human GLP-1 receptor was measured in a displacement binding assay. In this type of assay a labelled ligand (in this case 125I-GLP-1) is bound to the receptor. Each derivative was added in a series of concentrations to isolated membranes containing the human GLP-1 receptor and displacement of the labelled ligand was monitored. The receptor binding was reported as the concentration at which half of the labelled ligand was displaced from the receptor, the IC50 value.
In order to test the binding of the derivatives to albumin, the assay may be performed in a very low concentration of serum albumin (max. 0.001% final assay concentration) as well as in the presence of a higher concentration of serum albumin (2.0% final assay concentration). An increase of the IC50 value, in the presence of serum albumin indicates an affinity to serum albumin and represents a method to predict a protracted pharmacokinetic profile of the test substance in animal models.
The following chemicals were used in the assay: DMEM w/o phenol red (Gibco 11880-028), Pen/strep (Invitrogen 15140-122), G418 (Invitrogen 10131-027), 1 M Hepes (Gibco 15630), EDTA (Invitrogen 15575-038), PBS (Invitrogen 14190-094), fetal calf serum (Invitrogen 16140-071), EGTA, MgCl2 (Merck 1.05832.1000), Tween 20 (Amresco 0850C335), SPA particles (wheat germ agglutinin (WGA) SPA beads, Perkin Elmer RPNQ0001), [125I]-GLP-1]-(7-36)NH2 (produced in-house), OptiPlate™-96 (Perkin Elmer).
Buffer 1 consisted of 20 mM Na-HEPES plus 10 mM EDTA and pH was adjusted to 7.4.
Buffer 2 consisted of 20 mM Na-HEPES plus 0.1 mM EDTA and pH was adjusted to 7.4.
Assay buffer consisted of 50 mM HEPES supplemented with 5 mM EGTA, 5 mM MgCl2, 0.005% Tween 20 and pH was adjusted to 7.4.
The cells used in this assay (clone FCW467-12A) were BHK cells with BHKTS13 as a parent cell line. The cells express the human GLP-1 receptor.
The cells were grown at 5% CO2 in DMEM, 10% fetal calf serum, 1% Pen/Strep (Penicillin/Streptomycin) and 1.0 mg/ml of the selection marker G418. To make a membrane preparation the cells were grown to approximately 80% confluence. The cells were washed twice in phosphate-buffered saline and harvested. The cells were pelleted using a brief centrifugation and the cell pellet was kept on ice. The cell pellet was homogenised with ULTRA-THURRAX dispersing instrument for 20-30 sec in a suitable amount of buffer 1 (e.g. 10 ml). The homogenate was centrifuged for 15 min. The pellet was re-suspended (homogenised) in 10 ml buffer 2 and centrifuged. This step was repeated once more. The resulting pellet was re-suspended in buffer 2 and the protein concentration was determined. The membranes were aliquoted and stored at minus 80° C.
1. For the receptor binding assay, 50 μl of the assay buffer was added to each well of an assay plate.
2. Test compounds were serially diluted to give the following concentrations: 8×10EE-7 M, 8×10EE-8 M, 8×10EE-9 M, 8×10EE-10 M, 8×10EE-11 M, 8×10EE-12 M and 8×10EE-13 M. Twenty-five μl were added to appropriate wells in the assay plate.
3. Cell membrane aliquots were thawed and diluted to their working concentration. Fifty μl were added to each well in the assay plate.
4. WGA SPA beads were suspended in assay buffer at 20 mg/ml. The suspension was diluted to 10 mg/ml in assay buffer just prior to addition to the assay plate. Fifty μl were added to each well in the assay plate.
5. The incubation was started by adding 25 μl of 480 pM solution of [125I]-GLP-1]-(7-36)NH2 to each well of the assay plate. A 25 μl aliquot was reserved for measuring total counts/well.
6. The assay plate was incubated for 2 h at 30° C.
7. The assay plate was centrifuged for 10 min.
8. The assay plate was read in a Perkin Elmer TopCount NXT instrument. […]

Row | IC50 | Structure (SMILES)
1 | 0.2 nM | CC(C)C[C@H](NC(=O)[C@H](Cc1ccc(O)cc1)NC(=O)[C@H](CCCCN)NC(=O)[C@H](CO)NC(=O)[C@H](CC(C)C)NC(=O)[C@H](CC(=O)O)NC(=O)[C@H](CO)NC(=O)[C@@H](NC(=O)[C@H](Cc1ccccc1)NC(=O)[C@@H](NC(=O)CNC(=O)[C@H](CCC(N)=O)NC(=O)C(C)(C)NC(=O)[C@@H](N)Cc1c[nH]cn1)[C@@H](C)O)[C@@H](C)O)C(=O)N[C@@H](CC(=O)O)C(=O)N[C@@H](C)C(=O)N[C@@H](CCCNC(=N)N)C(=O)N[C@@H](CCCNC(=N)N)C(=O)N[C@@H](C)C(=O)N[C@@H](CCCNC(=N)N)C(=O)N[C@@H](CC(=O)O)C(=O)N[C@@H](Cc1ccccc1)C(=O)N[C@H](C(=O)N[C@@H](CCC(N)=O)C(=O)N[C@@H](Cc1c[nH]c2ccccc12)C(=O)N[C@@H](CC(C)C)C(=O)N[C@@H](CC(C)C)C(=O)N[C@@H](CCCCNC(=O)COCCOCCNC(=O)COCCOCCNC(=O)CC[C@H](NC(=O)CC[C@H](NC(=O)CC[C@H](NC(=O)CCCCCCCCCCCCCCCCC(=O)O)C(=O)O)C(=O)O)C(=O)O)C(=O)N[C@H](C(N)=O)[C@@H](C)O)C(C)C [Example 58, N^ε28-[2-[2-[2-[[2-[2-[2-[[(4S)-4-carboxy-4-[[(4S)-4-carboxy-4-[[(4S)-4-carboxy-4-(17-carboxyheptadecanoylamino)butanoyl]amino]butanoyl]amino]butanoyl]amino]ethoxy]ethoxy]acetyl]amino]ethoxy]ethoxy]acetyl]-[Aib2,Leu10,Ala16,Arg20,Leu27,Lys28]-Glucagon amide] (H-H[Aib]QGTFTSDLSKYLDARRARDFVQWLLK([AEEA-AEEA-γGlu-γGlu-γGlu-C18 diacid])T-NH2; N-terminus assumed)
2 | 0.2 nM | CC(C)C[C@H](NC(=O)[C@H](Cc1ccc(O)cc1)NC(=O)[C@H](CCCCN)NC(=O)[C@H](CO)NC(=O)[C@@H](NC(=O)[C@H](CC(=O)O)NC(=O)[C@H](CO)NC(=O)[C@@H](NC(=O)[C@H](Cc1ccccc1)NC(=O)[C@@H](NC(=O)CNC(=O)[C@H](CCC(N)=O)NC(=O)C(C)(C)NC(=O)[C@@H](N)Cc1c[nH]cn1)[C@@H](C)O)[C@@H](C)O)C(C)C)C(=O)N[C@@H](CC(=O)O)C(=O)N[C@@H](C)C(=O)N[C@@H](CCCNC(=N)N)C(=O)N[C@@H](CCCNC(=N)N)C(=O)N[C@@H](C)C(=O)N[C@@H](CCC(N)=O)C(=O)N[C@@H](CC(=O)O)C(=O)N[C@@H](Cc1ccccc1)C(=O)N[C@H](C(=O)N[C@@H](CCC(N)=O)C(=O)N[C@@H](Cc1c[nH]c2ccccc12)C(=O)N[C@@H](CC(C)C)C(=O)N[C@@H](CC(C)C)C(=O)N[C@@H](CCCCNC(=O)COCCOCCNC(=O)COCCOCCNC(=O)CC[C@H](NC(=O)CC[C@H](NC(=O)CC[C@H](NC(=O)CCCCCCCCCCCCCCCCC(=O)O)C(=O)O)C(=O)O)C(=O)O)C(=O)N[C@H](C(N)=O)[C@@H](C)O)C(C)C [Example 70, N^ε28-[2-[2-[2-[[2-[2-[2-[[(4S)-4-carboxy-4-[[(4S)-4-carboxy-4-[[(4S)-4-carboxy-4-(17-carboxyheptadecanoylamino)butanoyl]amino]butanoyl]amino]butanoyl]amino]ethoxy]ethoxy]acetyl]amino]ethoxy]ethoxy]acetyl]-[Aib2,Val10,Ala16,Leu27,Lys28]-Glucagon amide] (H-H[Aib]QGTFTSDVSKYLDARRAQDFVQWLLK([AEEA-AEEA-γGlu-γGlu-γGlu-C18 diacid])T-NH2)
